In one data set the test system is A549 cells. As to the kind of experiment: MicroRNA mimics: cell cycle assay. In kind it is cell-based. To be noted: RNAIMAX transfection, 0.1-100 nM, nocodazole, propidium iodide flow cytometry. As for the experimental part:
A cell cycle assay was used to evaluate the activity of microRNA mimics. A549 cells were plated at a density of approximately 45,000 cells per well of a 24-well plate. The following day, cells were transfected with microRNA mimics and control oligomeric compounds, using RNAIMAX as the transfection reagent. Oligomeric compounds were tested at concentrations ranging from 0.1 nM to 100 nM. Control oligomeric compounds were also tested. Approximately 24 hours following transfection, nocodazole was added to the cells at a concentration ranging from 0.5 to 2.0 μg/ml. Approximately 16 hours later, the cells were harvested, washed, ethanol-fixed and stained with propidium iodide. Cells cycle profiles were generated by subjecting the stained cells to flow cytometry (FACSCAN).
On the technique in general: A flow cytometer gives signals particle by particle.

The test system of data set [1] is miR-34 seed-matched nucleic acids. As to the kind of experiment: Microarray analysis of gene expression changes after miR-34 mimics. In kind it is cell-based. Conditions: microarray analysis of cells treated with miR-34 mimics. The source says: In addition to measuring cell cycle progression, cells treated with miR-34 mimics were subjected to microarray analysis to compare the profile of gene expression changes following treatment with microRNA mimics.

For data set [2] the following is noted: mouse, serum.
Method: Single-stranded oligomeric compounds were tested for stability in mouse serum.
Data set [3] has as its system PTEN. As to the kind of experiment: PTEN mRNA reduction in HeLa cells, dose response (Example 59). In kind it is cell-based, human. To be noted: percent inhibition of PTEN mRNA, real-time PCR normalized to RIBOGREEN, 0.20-50 nM. As for the experimental part:
When cells reached 65-75% confluency, they are treated with one or more oligomeric compounds. The oligomeric compound is mixed with LIPOFECTIN™ Invitrogen Life Technologies, Carlsbad, Calif.) in Opti-MEM™-1 reduced serum medium (Invitrogen Life Technologies, Carlsbad, Calif.) to achieve the desired concentration of the oligomeric compound(s) and a LIPOFECTIN™ concentration of 2.5 or 3 μg/mL per 100 nM oligomeric compound(s). This transfection mixture is incubated at room temperature for approximately 0.5 hours. For cells grown in 96-well plates, wells are washed once with 100 μL OPTI-MEM™-1 and then treated with 130 μL of the transfection mixture. Cells grown in 24-well plates or other standard tissue culture plates are treated similarly, using appropriate volumes of medium and oligomeric compound(s). […]
Quantitation of target mRNA levels is accomplished by real-time quantitative PCR using the ABI PRISM™ 7600, 7700, or 7900 Sequence Detection System (PE-Applied Biosystems, Foster City, Calif.) according to manufacturer's instructions. This is a closed-tube, non-gel-based, fluorescence detection system which allows high-throughput quantitation of polymerase chain reaction (PCR) products in real-time. As opposed to standard PCR in which amplification products are quantitated after the PCR is completed, products in real-time quantitative PCR are quantitated as they accumulate. […]

For a further data set, the system named is human PTEN. As to the kind of experiment: PTEN expression in HeLa cells, ssRNAs vs siRNAs (Example 62). It is filed as cell-based. As for the experimental part:
A series of 5′ and 2′ bis-substituted modified oligomeric compounds were prepared as single strand RNAs (ssRNAs). The antisense (AS) strands listed below were designed to target human PTEN, and each was also assayed as part of a duplex with the same sense strand (ISIS 341401, shown below) for their ability to reduce PTEN expression levels. HeLa cells were treated with the single stranded or double stranded oligomeric compounds created with the antisense compounds shown below using methods described herein. The IC50's were calculated using the linear regression equation generated by plotting the normalized mRNA levels to the log of the concentrations used.

The test system of data set [4] is PTEN. As to the kind of experiment: PTEN mRNA reduction in HeLa cells, dose response (Example 69). It is filed as cell-based, human. Conditions: percent inhibition of PTEN mRNA, 0.067-50 nM. As for the experimental part: In accordance with the present disclosure, oligomeric compounds were synthesized and tested for their ability to reduce PTEN expression over a range of doses. Human HeLa cells were treated with either ISIS 447581, 467074, 418046 or 467076. A dose comparison was evaluated with dose concentrations of 0.067, 0.2, 0.62, 1.9, 5.5, 16.7 and 50 nM using methods described herein. Expression levels of PTEN were determined using real-time PCR and normalized to RIBOGREEN™ using methods described herein. The percent inhibition of PTEN mRNA was determined and the resulting dose-response curves were used to determine the EC50. The EC50s are listed below.

Like-named read-outs stand apart in the source and are kept apart here. Strand notation (5' to 3'): a small letter for the sugar, then the base; units joined by * are phosphorothioate-linked, units joined directly phosphodiester-linked; [ ] holds rarer units or linkages, { } end groups; capitals alone tell only the bases. [Rc] = thymidine, 2',5'-bis modified nucleoside Rc; e = 2'-O-(2-methoxyethyl) (MOE); m = 2'-O-methyl; {P} = phosphate; f = 2'-fluoro

Experimental findings from US20130156845A1, “LIPID FORMULATED SINGLE STRANDED RNA” (ALNYLAM PHARMACEUTICALS, INC., priority 2010, published 2013) are described below.

Regarding “P-UmGfGfCfAfGfUfGfUmCmUfUfAmGmCfUfGfGfUfUfGfUfAeAe ({P}-mUfGfGfCfAfGfUfGmUmCfUfUmAmGfCfUfG*fG*fU*fU*fG*fU*eA*eA) [ss miR-34]”, the cell cycle phenotype entry in the data set with A549 cells is given as “blocking cells in the G1 phase of the cell cycle”. In addition, in data set [1], the “effect on miR-34 seed-matched nucleic acids” value is “down-regulated miR-34 seed-matched nucleic acids”.
Take “5′-Ps-UdUfoGfoUfoCfoUfoCfoUfoGfoGfoUfoCfoCfoUfsUfsAfsCfsUfsUfsAesAe [ISIS 435395]”: the T1/2 full length in data set [2] was determined as 7.8 h.
For “P-TRcUfGmUfCmUfCmUfGmGfUmCfCmUfUmAfCmUfUmAeAe (antisense TUGUCUCUGGUCCUUACUUAA; sugars from the 5' end [Rc]fmfmfmfmfmfmfmfmfmee, 5' {P}, backbone not given here) [ISIS 447581, modified ssRNA targeting PTEN]”, the EC50 in the data set on PTEN [3] stood at 0.87 nM; with human PTEN (antisense strand duplexed with sense strand ISIS 341401, PTEN mRNA, read-out: EC50 (nM) siRNA), 0.4 nM; with human PTEN (single stranded antisense compound, PTEN mRNA, read-out: EC50 (nM) ssRNA) it was 1 nM; in the data set with PTEN [4], 0.6 nM.

Usually EC50 stands for the concentration at which the effect is half-maximal.
